Test results reported in publication PMC10606064, “2-Aminothiazole-Flavonoid Hybrid Derivatives Binding to Tau Protein and Responsible for Antitumor Activity in Glioblastoma” (International Journal of Molecular Sciences, 2023).
Like-named read-outs stand apart in the source and are kept apart here.

How the values were obtained:
U87 shCTRL cells [1] = assay: Cell cycle by flow cytometry (propidium iodide), U87 shCTRL; type: cell-based, human; settings: 48 h, compounds 10 µM, NOC 1 µM
Description: (§1) Measurements of cell cycle from DNA content were performed by flow cytometry as described before. Briefly, 4.10^5 cells in exponential growth were seeded in 6-well plates. After 24 h, they were treated with 10 µM of compounds for 48 h. Nocodazole was used as a positive control with a concentration of 1 µM. The trypsinized cells were harvested and then centrifuged (1200 rpm, 5 min, at room temperature). The cell pellet was resuspended in 1 mL of PBS 1× at 4 °C, and then an extra 4 mL of cold PBS was added to wash the pellet. Cells were then centrifuged again (1200 rpm, 5 min, at 4 °C). To fixate the cells, the pellet was resuspended in 100 µL of cold 70% ethanol, then an additional 900 µL was added and cells were incubated for 30 min at −20 °C. After that, 9 mL of cold PBS was added, and cells were centrifuged (2000 rpm, 5 min, at 4 °C) to remove ethanol. The cell pellet was then resuspended in the staining mix containing 50 µg.mL^−1 of propidium iodide (Molecular Probes, Paris, France) and 100 µg.mL^−1 of RNAse A (Sigma-Aldrich, Saint-Quentin-Fallavier, France) in PBS for 20 min at room temperature in darkness. Samples were analyzed on a Beckman–Coulter–Gallios flow cytometer using the Kaluza for Gallios Acquisition v1.0 software. Propidium iodide was excited at 488 nm, and fluorescence was analyzed at 620 nm on channel FL-3. For the analysis, there is considerable overlap between early S phase and G1 and between late S phase and G2/M due to broadening of the distribution caused by variability in the staining of the cells and instrumental variability. Therefore, the percentages of cells in the sub-G1, G1, S, and G2/M phases of the cell cycle were calculated using the Watson et al. algorithm for cell cycle analysis in Kaluza for Gallios Analysis v2.1 software. The software automatically adjusted gates based on PI median fluorescence intensity of the cells and their frequency among total cells. The number of cells in each phase was divided by the total number of analyzed cells, and the values were reported as percentage of the total cells for each cell cycle phase.

U87 shTau cells [2] = assay: Cell cycle by flow cytometry (propidium iodide), U87 shTau; type: cell-based, human; settings: 48 h, compounds 10 µM, NOC 1 µM
Description: as §1

U87 shCTRL cells [3] = assay: Mitotic index by high-content imaging, U87 shCTRL; type: cell-based, human; settings: 48 h, 5-times IC50 of compounds
Description: (§2) For scoring mitotic indexes, an automated high-content screening confocal microscopy approach was employed to identify cells undergoing mitosis from a large population of cells. For this, cells nuclei were stained with DAPI. Briefly, fibronectin-coated clear-glass-bottom black 96-well imaging plates were seeded with 100 µL of cell suspension (60,000 cell.mL^−1) in each well, with both U87 shCTRL and U87 ShTau cell lines. Cells were treated with 5-times IC50 of compounds for 48 h, then they were fixated inside the palates with 4% formaldehyde (in PBS pH 7.4) for 20 min at room temperature, permeabilized with PBS-Triton X-100 0.5% for 10 min at room temperature. DNA was then stained with DAPI (10 µg.mL^−1) for 5 min at room temperature and in the darkness. After being washed, cells were kept in PBS at 4 °C and imaged while in PBS. Automated confocal microscopy was carried out using an Opera Phenix (PerkinElmer) high-content screening microscope using a 20× Air/0.4 NA air objective. For each condition, 6 wells were prepared and a total of 61 fields were acquired for each well. Image analysis was performed using Harmony high-content analysis v4.8 software and PhenoLOGIC Machine Learning technology, which uses a learn-by-example approach. As a first step, nuclei were segmented and multiple parameters for these nuclei were calculated using Harmony v4.8 software building blocks. After training, PhenoLOGIC Machine Learning then selects the best parameters to detect nuclei undergoing the M phase of mitosis. From this, the mitotic index of each condition was calculated by dividing the number of cells undergoing mitosis over the total number of cells.

U87 shTau cells [4] = assay: Mitotic index by high-content imaging, U87 shTau; type: cell-based, human; settings: 48 h, 5-times IC50 of compounds
Description: as §2

[5] = biological target: T1, full-length human Tau (hTau40) (Homo sapiens, UniProt P10636); assay: Tau oligomerization inhibition assay (heparin-induced, thioflavin S fluorescence); type: biochemical
T1 construct: The full-length human Tau (hTau40) was expressed in a transformed E. coli BL21 (DE3) strain; made in house; host or cells: E. coli BL21 (DE3)
Description: Tau oligomerization inhibition assay was performed at 37 °C in 96-well plates by monitoring thioflavin-S fluorescence at 520 nm after excitation at 440 nm using a microplate reader (POLARstar Omega system, BMG Labtech, Paris, France). The Tau oligomerization process was induced by heparin. […] The plates were shaken at 200 rpm for 10 s before each measurement. The real value of fluorescence at the plateau was determined using SciDAVis v1.23 software. Data were fitted to the SciDAVis built-in ExpGrowth equation by means of nonlinear least-squares regression analysis. Y = Y0 + A × exp(x/t)(1)
The unscaled Levenberg–Marquardt algorithm was used, and initial values were given to Y0, A, and t. The final Y0 value of the model corresponds to the plateau value. The plateau values were then used to calculate the Tau oligomerization inhibition percentage. The IC50 for each compound was calculated from the scatter plot of Tau oligomerization inhibition (in percentage) as a function of log10 of compound concentration. The IC50 value (in µM) thus corresponds to ten raised to the power of […].

[6] = biological target: T2, Tau protein (full-length human Tau, hTau40) (Homo sapiens, UniProt P10636); assay: Tau intrinsic fluorescence quenching, modified Stern–Volmer binding parameters; settings: 5 µM Tau, buffer B pH 6.8, mean ± SD; for Kd: read-out: Equilibrium Binding Constants to Tau, KD
T2 construct: The full-length human Tau (hTau40) was expressed in a transformed E. coli BL21 (DE3) strain; made in house; host or cells: E. coli BL21 (DE3)
Description: Fluorescence measurements were performed with a Horiba Jobin Yvon FluoroMax-3 spectrofluorometer. […] For experiments, the excitation wavelength was fixed at 275 nm, and the emission spectra were recorded between 280 nm and 500 nm at room temperature. The inner filter effects were corrected according to Lakowicz as follows:F = Fobs × exp{(Aem + Aex)/2}(2) where Fobs and F are the observed and corrected fluorescence values at the emission wavelength of 303 nm. Aex and Aem are the absorptions at the excitation and emission wavelengths, respectively, calculated with A = ε.l.C, in which ε is the extinction coefficient of Tau, l is the path length of cuvette, and C is Tau concentration.
The total fluorescence in the absence of quencher (F0) is given by:F0 = F0a + F0b(4) where 0 refers to the fluorescence intensity in the absence of quencher.
In the presence of quencher, we defined fa as the fraction of the initial fluorescence of Tau accessible to compounds:fa = F0a/(F0a + F0b)(5)
Therefore, the intensity of the accessible fraction (fa) is decreased according to the Stern–Volmer equation, whereas the buried fraction is not quenched, as given by:F = {F0a/(1 + K.[Q])} + F0b(6)
Then, subtraction of Equations (6) and (4) yields:ΔF = F0 − F = F0a × {K.[Q]/(1 + K.[Q])}(7)
At last, inversion of Equation (7) followed by division into Equation (4) yields:F0/ΔF = {1/(fa.K.[Q])} + 1/fa(8)
We applied this modified form of the Stern–Volmer equation to graphically determine the values of fa and K. For our experiments, we plotted F0/ΔF against 1/[Q], then we determined the fa value at the point of intersection with the y-axis, while the slope represented (faK)^−1.

U87 glioblastoma cells = assay: MTT cell viability assay, U87; type: cell-based, human; settings: Homo sapiens; U87, 72 h, MTT; mean ± SEM; read-out: IC50 (metabolic activity)
Description: (§3) Cells harvested from sub-confluent monolayers were seeded at 15,000 cells per mL in a 96-well microtiter plate (Cambridge Technology, Labège, France) and cultured for 24 h under standard conditions. Standard medium was then replaced by fresh medium containing no drugs or compounds at different concentrations. The surviving cells were quantified after 72 h by the MTT assay, according to the manufacturer’s instructions. Briefly, 20 µL of 3-(4,5-diMethylThiazol-2-yl)-2,5diphenyl Tetrazolium bromide (MTT) solution at 5 mg.mL^−1 was added to cells for 3 h at 37 °C. The supernatant was discarded and replaced by 100 µL of dimethyl sulfoxide to dissolve formazan crystals. The absorbance was then read at 600 nm by spectrophotometry. For all concentrations of a given compound, cell viability was expressed as the percentage of the ratio between the mean absorbance of treated cells and the mean absorbance of untreated cells. Three independent experiments were performed, and the data were expressed as percentage of survival (using the untreated cells as 100%) and subjected to statistical analysis (n = 3). The IC50 was calculated using the Chou and Talalay method.

U251 glioblastoma cells = assay: MTT cell viability assay, U251; type: cell-based; settings: Homo sapiens, U-251, U251, 72 h, mean ± SEM, read-out: IC50 (metabolic activity)
Description: as §3

U138 glioblastoma cells = assay: MTT cell viability assay, U138; type: cell-based; settings: Homo sapiens, U138, 72 h, mean ± SEM, read-out: IC50 (metabolic activity)
Description: as §3

T98G glioblastoma cells = assay: MTT cell viability assay, T98G; type: cell-based; settings: Homo sapiens, 72 h, mean ± SEM, read-out: IC50 (metabolic activity)
Description: as §3

[7] = system: Caco-2 colon adenocarcinoma cells; assay: MTT cell viability assay, Caco-2; type: cell-based; settings: Homo sapiens, Caco-2 (not expressing Tau), 72 h, mean ± SEM, read-out: IC50 (metabolic activity)
Description: as §3

mature Tau aggregates = biological target: T3, mature Tau aggregates (Homo sapiens, UniProt P10636); assay: Dissolution of preformed (mature) Tau aggregates, ThS fluorescence; type: biochemical; settings: 10, 30 and 100 µM added to ThS-labelled aggregates after 8 h, 37 °C
T3 construct: The full-length human Tau (hTau40) was expressed in a transformed E. coli BL21 (DE3) strain; made in house; host or cells: E. coli BL21 (DE3)
Description: Moreover, we performed a qualitative study of the ability of QCT and compounds 1, 5, and 9 to dissolve preformed Tau aggregates (Figure 3).
Eight-hour time courses were performed with ThS to monitor heparin-induced Tau aggregation by spectrofluorometry at 520 nm (37 °C), then 10, 30, and 100 µM of compounds (curves b–d) were added to the ThS-labelled Tau aggregates. A control was performed without compound (curve a).

[8] = system: GBM cells (U87, U251, U138, and T98G); assay: MTT assay across the Tau-expressing GBM cell models; type: cell-based, human
Description: as §3

R3 peptide = system: R3 peptide; parameters: method as in PMID 34743390; settings: 10 µM, AFM analysis; cited from earlier work
[9] = 2 µM Tau, heparin-induced, ThS, buffer A pH 6.9, 25 °C per table footnote (37 °C in method), mean ± SD, read-out: Inhibition of Aggregation IC50

T2 sequence (P10636 1-441 isoform P10636-8): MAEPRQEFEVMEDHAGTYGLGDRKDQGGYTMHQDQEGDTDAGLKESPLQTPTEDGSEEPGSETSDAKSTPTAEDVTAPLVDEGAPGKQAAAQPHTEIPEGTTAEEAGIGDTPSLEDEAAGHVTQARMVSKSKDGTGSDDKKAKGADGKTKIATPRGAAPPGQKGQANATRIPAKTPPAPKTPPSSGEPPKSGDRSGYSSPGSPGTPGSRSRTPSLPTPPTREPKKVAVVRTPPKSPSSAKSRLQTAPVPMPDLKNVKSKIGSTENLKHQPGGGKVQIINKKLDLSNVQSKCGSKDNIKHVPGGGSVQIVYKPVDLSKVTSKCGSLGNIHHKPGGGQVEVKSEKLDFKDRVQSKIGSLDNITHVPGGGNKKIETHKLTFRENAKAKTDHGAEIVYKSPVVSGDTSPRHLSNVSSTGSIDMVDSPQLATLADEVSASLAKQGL
T1 sequence (P10636 1-441 isoform P10636-8): as above
T3 sequence (P10636 1-441 isoform P10636-8): as above

Structure (SMILES) | %G1 (cells in G1 phase) (U87 shCTRL cells [1]) [%] | %G2/M (cells in G2/M phase) (U87 shCTRL cells [1]) [%] | %G1 (cells in G1 phase) (U87 shTau cells [2]) [%] | %G2/M (cells in G2/M phase) (U87 shTau cells [2]) [%] | mitotic index (U87 shCTRL cells [3]) [%] | mitotic index (U87 shTau cells [4]) [%] | IC50 [5, 9] [µM] | Equilibrium Binding Constants to Tau, fA (Tyr accessible fraction) [6] | Kd [6] [µM] | IC50 (U87 glioblastoma cells) [µM] | IC50 (U251 glioblastoma cells) [µM] | IC50 (U138 glioblastoma cells) [µM] | IC50 (T98G glioblastoma cells) [µM] | IC50 [7] [µM] | Ability to dissolve mature (preformed) Tau aggregates (mature Tau aggregates) | IC50 ([8]; Homo sapiens, U87, U251, U138, T98G, 72 h MTT, read-out: IC50 among the Tau-expressing GBM cell models) [µM] | IC50 [5] [µM] | R3 peptide fibrillation (R3 peptide) | efficacy fold higher than 13 and 15 ([8]; GBM cells)
COC(=O)Nc1nc2ccc(C(=O)c3cccs3)cc2[nH]1 [NOC, nocodazole, reference compound] | 10 ± 3 | 82 ± 6 | 9 ± 7 | 77 ± 4 | 9.38 ± 3.55 | 23.0 ± 4.01 |  |  |  |  |  |  |  |  |  |  |  |  | 
Nc1nc(-c2ccc3oc(-c4ccccc4)cc(=O)c3c2)cs1 [Compound 1] |  |  |  |  |  |  | 92 ± 9.6 | 0.39 ± 0.08 | 7 ± 2.3 | 22.4 ± 5.2 | 6.7 ± 2.2 | 6.4 ± 1.3 | 4.2 ± 0.7 | 33.2 ± 13.3 | able to dissolve mature Tau aggregates | 4.2 to 22.4 |  |  | 
O=c1c(O)c(-c2ccc(O)c(O)c2)oc2cc(O)cc(O)c12 [QCT, quercetin, reference compound] |  |  |  |  |  |  |  | 0.12 ± 0.04 | 2.4 ± 0.6 | > 100 | > 100 | > 100 | > 100 | > 100 | able to dissolve mature Tau aggregates |  | 17.3 ± 0.6 | abrogated R3 peptide fibrillation | 
COc1c(-c2cccc(F)c2)oc2ccc3nc(N)sc3c2c1=O [Compound 14] |  |  |  |  |  |  | 11.7 ± 2 | 0.21 ± 0.04 | 4.2 ± 0.3 | 1.1 ± 0.2 | 1.3 ± 0.5 | 1.4 ± 0.2 | 2.7 ± 0.5 |  |  |  |  |  | up to 6 fold
